From ChEMBL document CHEMBL3988442, “University of Dundee, Small-Polar-MMV Screening Library” (2021)
Values joined by “and” are separate entries in the source; they are usually repeats but may differ in a detail not shown here. Identical values can stand only once.

System: Leishmania donovani
Test: Leishmania intramacrophage assay
Format: functional, organism-based
Settings: for IC50: Leishmania donovani

Compound	pIC50	IC50 [µM]
Cc1cc(=O)n2nc(Oc3ccc(Cl)c(C)c3)sc2n1	4.378	> 50.1
CN1CCC(N(Cc2ccco2)S(=O)(=O)c2cc(Br)ccc2Br)CC1	4.867	17.8
Cc1nc(NCc2nncn2C2CC2)c2c(CC(C)C)csc2n1	–	> 50.1
COCc1nc(CNc2cccc(-c3ncon3)c2)cs1	–	> 50.1
CCOc1cc(CNCCCn2ccnc2)cc(Cl)c1OC	–	24.6
Cc1ccc(N2CCC3(CN(CCO)CCC3(F)F)C2)nn1 (stereo not given)	–	> 50.1
CCOCCN(CCOCC)c1nc(C)nc2sccc12	–	> 50.1
COc1ccccc1CN(C)C(=O)CN1CC(n2nc(C)cc2C)C1	4.762	19.1
Cn1ccnc1CN1CCC(F)(F)C2(CCN(c3cccnc3)C2)C1 (stereo not given)	–	> 50.1
CN(Cc1ccncc1)C1COC2(CCN(Cc3ccco3)CC2)C1 (stereo not given)	–	> 50.1
COc1ccc(C(NCc2cccc(C#N)c2)C2CC2)cc1 (stereo not given)	–	> 50.1
O=C(O)CN1CCC(F)(F)C2(CCN(c3ccccn3)C2)C1 (stereo not given)	–	> 50.1
CC(Cn1ccnc1)NCc1cc(Br)c2c(c1)OCO2 (stereo not given)	–	> 50.1
Cc1nn(C)cc1-c1cc(C(F)(F)F)nc(NC2CCCCC2)n1	–	> 50.1
Cc1sc2nc(CCN)nc(N3CCC(N4CCCC4)CC3)c2c1C	–	> 50.1
COc1ccc(CNc2cnn(C)c(=O)c2Cl)cc1	–	> 50.1
Cc1nnc(NCC2(c3ccc(Cl)cc3Cl)CCOCC2)c(C#N)c1C	–	> 50.1
CN(Cc1ccncc1)C1COC2(CCN(Cc3cccs3)CC2)C1 (stereo not given)	–	> 50.1
Cc1nc2c(c(NCCc3nc4c(s3)CCCC4)n1)CCNCC2	–	44.3
CCc1nc2c(N3CCC4(CC3)CC(=O)N(CC(C)C)C4)ncnc2o1	4.305	> 50.1
CC(Cn1cccn1)NC(=O)NCCc1cccnc1 (stereo not given)	–	> 50.1
FC1(F)CCN(Cc2cccnc2)CC12CCN(c1ccccn1)C2 (stereo not given)	–	> 50.1
Cc1ccc(CN2CCC(F)(F)C3(CCN(c4cnccn4)C3)C2)o1 (stereo not given)	–	> 50.1
CC(C)n1nnc2c(sc3nc(N4CCOCC4)c4c(c32)CCC4)c1=O	–	> 50.1
Fc1ccc(CN2CCC(F)(F)C3(CCN(c4cnccn4)C3)C2)cc1 (stereo not given)	–	> 50.1

Compound	pIC50	IC50 [µM]
Cc1ccc(-c2ncc(CNc3cnccc3CO)s2)cc1	–	> 50.1
CN(C)C1COC2(CCN(Cc3ccc4c(c3)OCO4)CC2)C1 (stereo not given)	–	> 50.1
CCCn1nnc2c(sc3nc(N4CCOCC4)c4c(c32)CCC4)c1=O	–	> 50.1
COCCNc1nc2c(c(NCCc3cccs3)n1)CCNCC2	–	24.2
CC(=O)NCc1nnc2n1CCN(c1nc(C)nc3sccc13)CC2	–	> 50.1
Clc1ccccc1-c1cc(CNc2ncnc3c2CCNCC3)no1	4.821	12
Cc1nc(NCc2noc(C3CCCO3)n2)c2ccsc2n1 (stereo not given)	–	> 50.1
Cc1ccc(-c2cc(C(F)(F)F)nc(N3CCOCC3)n2)s1	–	> 50.1
O=C(O)C1CCCN1c1nc(-c2ccc(Cl)c(Cl)c2)cc(C(F)(F)F)n1 (stereo not given)	–	> 50.1
Cn1ncc2c1CN(Cc1ccc(F)cc1)CC2COCC1CC1 (stereo not given)	–	> 50.1
CN(CCc1noc(C2CC2)n1)C(=O)CN1C(=O)COc2ccccc21	–	> 50.1
Cc1cnn(-c2cccc(N3CCCC3)n2)c1	–	> 50.1
FC1(F)CCN(Cc2ccncc2)CC12CCN(c1cccnc1)C2 (stereo not given)	–	> 50.1
CCC(=O)N1CCC(c2ncc3c(n2)CCNC3)CC1	–	> 50.1
CN1CCCC(Cc2cncc(Br)c2)CC1 (stereo not given)	–	> 50.1
COCCN(Cc1sccc1C)c1nc(C)nc2sccc12	–	> 50.1
O=C(NCc1ccccn1)C1=NN(c2ccccc2)C(=O)CN1	–	> 50.1
COCCNc1nc(C2CCCC2)nc2c1CCNCC2	4.615	17.4
NS(=O)(=O)NCC1(c2ccccc2Br)CC1	–	> 50.1
Cc1nnc(NCC2(c3ccccc3)CC2)c(C#N)c1C	–	> 50.1
CCN1CCC2(C=C(C(=O)N(C)C)c3ccccc32)CC1	–	> 50.1
Cc1nnc(NCC2(c3ccccc3)CCC2)c(C#N)c1C	–	> 50.1
CN(CC1CC1)c1ccc2ccc(C(=O)NCCc3ccccc3)cn12	–	> 50.1
CN(Cc1cc2cc(F)ccc2[nH]1)c1cc(C2CCCNC2)ncn1 (stereo not given)	4.89	21.5
Cc1nccn1CC1CCCN(C(=O)Cc2ccsc2)C1 (stereo not given)	–	> 50.1

Compound	pIC50	IC50 [µM]
CCN1CC(C(=O)NCc2ccc3c(c2)nc(C)n3C)CCC1=O (stereo not given)	–	> 50.1
CNC(=O)C1CCCN(c2nc(-c3ccco3)nc3c2CCNCC3)C1 (stereo not given)	–	> 50.1
Cc1ccc2c(n1)N(Cc1cccnc1)CCN(Cc1cnn(C)c1)C2	–	> 50.1
N#Cc1cccc(CNC(=O)C2=NN(c3ccccc3)C(=O)CN2)c1	–	> 50.1
CCCN(CCOC)c1nc(C)nc2sccc12	–	> 50.1
Cc1nccn1CCCn1cncc1-c1ccc2c(c1)CCCN2C	–	> 50.1
COc1cccc(Nc2nc(-c3ccncc3)nc3c2CNCC3)c1.Cl	4.645 and 4.976	–
Cn1cc(CN2CCC(F)(F)C3(CCN(c4cccnc4)C3)C2)cn1 (stereo not given)	–	> 50.1
O=C(c1ccc2ccc(N3CCN(CC4CC4)CC3)n2c1)N1CCCO1	–	> 50.1
c1nc(CCNc2nc(C3CC3)nc3c2CCNCC3)c[nH]1	–	> 50.1
CN(Cc1ccncc1)C1COC2(CCN(Cc3ccsc3)CC2)C1 (stereo not given)	–	> 50.1
FC1(F)CCN(Cc2ccncc2)CC12CCN(Cc1ccccn1)C2 (stereo not given)	–	> 50.1
CC(C)C[C@H](N)COc1cccc(F)c1Oc1ccccc1	4.696	12.5
Cc1cnc(N2CCCC3(CCCN(C)C3)C2)nc1 (stereo not given)	–	> 50.1
CC(=O)c1sc2nc3c(c(C(F)(F)F)c2c1N)CN(C(C)=O)CC3	–	> 50.1
CN(Cc1ccccc1)C1COC2(CCN(Cc3nccs3)CC2)C1 (stereo not given)	–	> 50.1
CCn1ncc(-c2cc(C(F)F)nc3sc(C(N)=O)c(N)c23)c1C	–	> 50.1
CCS(=O)(=O)c1ccc(N2CCC(NC(=O)CCC(C)C)CC2)cc1	–	> 50.1
CN1CCN(CC(NCc2ccc(F)cc2)c2ccccc2)CC1 (stereo not given)	–	13.6
O=C(CC1CCCCC1)N1CCC(c2ncc3c(n2)CCNC3)CC1	–	> 50.1
CCOc1ccc(CNCCCn2ccnc2)cc1OC	–	> 50.1
CC(O)CN1CCN(Cc2csc(-c3ncccn3)n2)CC1 (stereo not given)	–	> 50.1
CCOc1ccc(-c2c(-c3ccccc3)ncn2C2CCNC2)cn1 (stereo not given)	4.374	> 50.1
c1ccc(COC2CCN(c3cncc(-n4cccn4)n3)CC2)cc1	–	> 50.1
O=C(NC1COC2(CCN(Cc3ccccn3)CC2)C1)c1ccccn1 (stereo not given)	–	> 50.1

Compound	pIC50	IC50 [µM]
Cc1sc2nc(CCN)nc(N3CCN(S(C)(=O)=O)CC3)c2c1C	–	> 50.1
Cc1ccc(N2CCCC(NCc3cscn3)C2)nn1 (stereo not given)	–	> 50.1
Cn1cc(CN2CCC(F)(F)C3(CCN(c4ncc(F)cn4)C3)C2)cn1 (stereo not given)	–	> 50.1
CCCC(=O)N1CCC(c2ncc3c(n2)CCNC3)CC1	–	> 50.1
Cc1nn(C)cc1-c1cc(C(F)F)nc2sc(C(N)=O)c(N)c12	–	> 50.1
N#Cc1ccc(CNC(=O)C2=NN(c3ccccc3)C(=O)CN2)cc1	–	> 50.1
Cn1ncc2c(N3CCCC4(CCNC4)C3)nc(C(C)(C)C)nc21 (stereo not given)	4.611 and 4.922	–
CCn1cnnc1CNc1nc(C)nc2scc(CC(C)C)c12	–	> 50.1
COCC(=O)Nc1ccnn1-c1ccc(Cl)cc1	4.861	13.5
COCCNC(=O)c1ccc2ccc(N(C)CC3CC3)n2c1	–	> 50.1
Cn1nccc1C1CCN(Cc2csc(-c3ncccn3)n2)CC1	–	> 50.1
FC1(F)CCN(Cc2ccccn2)CC12CCN(c1ncccn1)C2 (stereo not given)	–	> 50.1
CCOc1ccc(CNCCCn2ccnc2)cc1Cl	–	12.6
CCN1CCCC(O)(c2nc(C)c(CCOc3ccccc3Cl)s2)CC1 (stereo not given)	–	> 50.1
CN(CC1CC1)c1ccc2ccc(C(=O)NC3CCCCC3)cn12	–	> 50.1
Cc1ccc(CN2Cc3c(cnn3C)C(COCC3CC3)C2)s1 (stereo not given)	5.151 and 4.71	–
O=C(c1c[nH]cn1)N1CCC(F)(F)C2(CCN(c3cnccn3)C2)C1 (stereo not given)	–	> 50.1
CCc1nnc(CN2CCN(c3cccc(OC)c3)C(=O)C2)o1	–	> 50.1
CC(=O)N1CCc2nc3sc(C(N)=O)c(N)c3c(C(F)(F)F)c2C1	–	> 50.1
Cc1ccc(N2CCC3(CN(Cc4cccs4)CCC3(F)F)C2)nn1 (stereo not given)	–	> 50.1
FC(F)(F)c1nc(NC2CCCC2)c2ccccc2n1	–	> 50.1
Cc1nc2c(c(NCc3ccc(-c4ccccn4)s3)n1)CCNCC2	4.913	17.9
CCC(CO)NC(=O)c1ccc2ccc(N(C)CC3CC3)n2c1 (stereo not given)	–	> 50.1
CCC(N)C(=O)N1CCC(OCc2ccc(Cl)c(Cl)c2)CC1.Cl (stereo not given)	4.694	21.5
CCOc1ccc(CNCC(O)c2ccccc2)cc1Cl (stereo not given)	–	29.6

Compound	pIC50	IC50 [µM]
COc1ccc(C(NCc2ccc(C#N)cc2)C2CC2)cc1 (stereo not given)	–	> 50.1
Cc1nc(NCc2cccnc2)c2c(n1)c(C)nn2C	–	> 50.1
Cc1sc2nc(C(F)(F)F)nc(N3CCN(S(C)(=O)=O)CC3)c2c1C	–	> 50.1
C1CCc2nnc(CNc3nc(C4CC4)nc4c3CCNCC4)n2CC1	–	> 50.1
Cc1nnc(NCC2(c3ccccc3)CCOCC2)c(C#N)c1C	–	> 50.1
CC1CCCN(Cc2ccnc(-c3cccnc3)n2)C1 (stereo not given)	–	> 50.1
O=C1NCCCC12CCN(c1nc3c(c(C(F)(F)F)n1)CCCC3)C2 (stereo not given)	–	> 50.1
Cc1sc2nc(C(F)(F)F)nc(N3CCC(NS(C)(=O)=O)CC3)c2c1C	–	> 50.1
COc1ccccc1C1(CNc2nnc(C)c(C)c2C#N)CCOCC1	–	> 50.1
CN1CCN(C2COC3(CCN(Cc4cccs4)CC3)C2)CC1 (stereo not given)	–	> 50.1
CCN(CC)c1ccc2ccc(C(=O)N3CCCCO3)cn12	–	24.4
CN(Cc1ccncc1)C1COC2(CCN(Cc3ccccn3)CC2)C1 (stereo not given)	–	> 50.1
COCCN(C)C1COC2(CCN(Cc3cccc(F)c3)CC2)C1 (stereo not given)	–	> 50.1
Cc1nc(C2(O)CCCNCC2)sc1CCOc1ccccc1Cl.Cl (stereo not given)	5.014	12.5
Cc1nc(NCc2nnc(C)n2C)c2c(CC(C)C)csc2n1	–	> 50.1
CNS(=O)(=O)c1cccc(C(C)NCc2cccc(OC)c2)c1 (stereo not given)	–	> 50.1
CC(C)COc1cccc(-c2nc3c([nH]2)CCNC3)c1	4.688	19.2
Cc1nn(C)cc1-c1cc(C(F)(F)F)nc(NC2CCN(C)CC2)n1	–	> 50.1
CN(C)C(=O)C1CCN(c2cncc(-n3cccn3)n2)CC1	–	> 50.1
CC(=O)N1CCCN(Cc2csc(-c3ncccn3)n2)CC1	–	> 50.1
CCOCCN1CCN(CC(O)c2ccc(OC)cc2)CC1 (stereo not given)	–	> 50.1
